Measured values as given in article PMC4501038 (RSC advances, 2015).
Where a name gives a salt, the structure may show the parent alone. One block for each compound: values may come before it. Non-standard residues stand in square brackets, D forms with d. pGlu = O=C1CC[C@@H](C(=O)O)N1

Legend:
rodents = conditions: cited from earlier work
central TRH receptors = conditions: read-out: Ki, binding to central TRH receptors; cited from earlier work
TRH-DE = conditions: read-out: Ki, inhibition of TRH-DE; cited from earlier work
scopolamine-treated mice [1] = test: Scopolamine-induced memory impairment, passive avoidance test; type: in vivo; conditions: rivastigmine (positive control) plus scopolamine
scopolamine-treated mice [2] = test: Scopolamine-induced memory impairment, Morris water maze; type: in vivo; conditions: for working memory: escape latencies trial 1 vs trial 2: each day for four days, 6c 3.9 mg/kg, scopolamine 1 mg/kg
Swiss albino mice = test: Reversal of pentobarbital-induced sleeping time; type: in vivo; conditions: 10 μmol/kg i.v.
mice = test: Functional observation battery; conditions: mouse, in vivo
anesthetized mice [3] = test: Cerebral blood flow; type: in vivo; conditions: 6c 3.9 mg/kg, % change from basal
anesthetized mice [4] = test: Cardiovascular parameters; conditions: noradrenaline, dose not given

Compound: [1-methyl-(S)-4,5-dihydroorotyl)]-L-His-L-ProNH2 [TAL]
doses producing CNS effects, times lower than TRH (rodents): about 100 times
duration of antagonistic action on PB-induced sleep relative to TRH (rodents): eight times longer

Compound: [pGlu]NP[dY][dW]-NH2
Ki (central TRH receptors): 6.8 nM
Ki (TRH-DE): 151 nM

Compound: CCN(C)C(=O)Oc1cccc([C@H](C)N(C)C)c1 [rivastigmine]
step through latency (retention) (scopolamine-treated mice [1]): 235.1 ± 27.6 s
working memory: escape latencies trial 1 vs trial 2 (scopolamine-treated mice [2]): significant effect on day 1, 2 and 3

FOB arousal (mice): moderate arousal
FOB gait and posture (mice): normal till three hours
FOB posture (mice): normal posture
FOB respiration (mice): do not affect normal respiration
FOB spontaneous activity in open field (mice): do not increase spontaneous activity
Compound: NC(=O)[C@@H]1CCCN1C(=O)[C@H](Cc1cnc[nH]1)NC(=O)[C@@H]1CCC(=O)N1 [TRH, pGlu-His-ProNH2]
Sleeping duration (Mean± SEM) (Swiss albino mice; pentobarbital 50 mg/kg i.p. 10 min later, mice): 53.9 ± 3.7 min
(%) Reduction in time (Swiss albino mice; relative to control, pentobarbital 50 mg/kg i.p.): 42.5%
working memory: escape latencies trial 1 vs trial 2 (scopolamine-treated mice [2]): significantly decrease in trial 2 compared to trial 1 on all four days
increase in cerebral blood flow (anesthetized mice [3]): 93.4±2.9%

Compound: CN1[C@@H]2C[C@@H](OC(=O)[C@H](CO)c3ccccc3)C[C@H]1[C@@H]1O[C@@H]12 [scopolamine, scopolamine hydrobromide]
area under curve of the escape latencies in four-day trial (scopolamine-treated mice [2]; dose study, scopolamine (1 mg/kg i.p.) alone): 337.5 ± 12.2 s
working memory: escape latencies trial 1 vs trial 2 (scopolamine-treated mice [2]): did not show any significant difference between two trials

Compound: NC[C@H](O)c1ccc(O)c(O)c1 [Noradrenaline]
Δ Heart Rate (anesthetized mice [4]): 56.6±9 BPM
Δ MAP (anesthetized mice [4]): 42.8±2.2 mm Hg
Δ mean Diastolic BP (anesthetized mice [4]): 37.2±3.2 mm Hg
Δ mean Systolic BP (anesthetized mice [4]): 54.1±1.7 mm Hg
